Test results as given in patent US9724312B2, “Agent for the prevention, improvement or treatment of retinal disease” (ROHTO PHARMACEUTICAL CO., LTD., priority 2012, dated 2017).

System: ARPE-19
Test: Protective effect for retinal pigment epithelial cells against oxidative stress by hydrogen peroxide
Assay type: cell-based, human
Details: all-trans form content 280 μM, 14 h, then 750 μM hydrogen peroxide 2 h, FIG. 4, n=3
From the text: The involvement of oxidative stress in ophthalmologic diseases has been widely reported. Such involvement has been observed in, in addition to glaucoma and cataract, retinal diseases such as retinal diseases due to diabetes, hypertension, hyperlipemia, etc., age-related macular degeneration, retinopathy of prematurity, retinal vascular occlusion, retinal light damage, etc. (Nippon Ganka Gakkai Zasshi. 112, 22-29 (2008)). In the retina, the retinal pigment epithelium exists in an environment in which reactive oxygen easily generates (Invest Opthalmol V is Sci. 2006 July 47(7): 3164-3177). […]
After 2 hours of incubation, the cell culture supernatant was removed, and 200 μL of PBS was added to each well and promptly removed. Then, 100 μL of an equivalent mixture of a cell viability detection reagent Cell Titer-Glo (Promega) and PBS was added to each well and the luminescence produced by the reaction with ATP in living cells was measured with a luminometer (GloMax; Promega). The cell viability was calculated from the measured luminescence by the following formula and the cytoprotective effect of GGA against oxidative stress by hydrogen peroxide was examined. Cell viability(%)=100×[(luminescence of base- or GGA-treated group)/(luminescence of non-treated group)]

## CC(=O)CC/C=C(\C)CC/C=C(\C)CC/C=C(\C)CCC=C(C)C [all-trans form, (5E,9E,13E)-6,10,14,18-tetramethyl-5,9,13,17-nonadecatetrae n-2-one]
  cell viability compared with base-treated group: significantly higher cell viabilities
